What was measured:
Type in all cases: cell-based, human
[1] = test system: WNT-TCF targets; assay: RT-qPCR gene expression in Ls174T cells; details: Ls174T
Method: (§1) RT-qPCR was performed as in Melotti et al. (2014, supra) using BioRad equipment and reagents. Cells cultured in nitro were treated with the desired concentration of drug in DMEM-F12 and reduced serum (2.5% FBS) for 16h, unless otherwise noted, and collected in Trizol (Sigma) before total RNA extraction and cDNA synthesis. Primers were as in Table 1. HPRT (gene encoding Hypoxanthine phosphoribosyltransferase 1) and βACTIN were used as housekeeping controls for normalization.
Compounds have been tested for the transcriptional modulation of a restricted TCF signature in human colon cancer Ls174T cells. These included the direct targets AXIN2 (gene encoding a protein axis inhibition protein 2), LGR5 (gene encoding encodes leucine-rich repeat-containing G-protein coupled receptor 5) and cMYC (a regulator gene encoding a transcription factor), which should be repressed by WNT-TCF response antagonists and p21 (or CDKN1A, gene encoding a cyclin-dependent kinase inhibitor that inhibits the complexes of CDK2 and CDK1), which should be induced.

[2] = test system: WNT-TCF targets; assay: RT-qPCR gene expression in HT29 cells; details: 16h, batch 3, vs DMSO=1
Method: as §1
(§2) Primary colon cells CC14, CC36 and mCC11, colon cancer cell lines DLD1, HT29, Ls174T, melanoma cell line MeWo, glioblastoma cell lines U87 and U251, and the lung cancer cell line H358 were cultured in DMEM-F12 with 10% FBS under standard in nitro conditions.

[3] = test system: WNT-TCF targets; assay: RT-qPCR gene expression in CC36 primary colon cancer cells; details: 16h, batch 3, vs DMSO=1
Method: as §1, §2

[4] = test system: WNT-TCF targets; assay: RT-qPCR gene expression in U251 glioblastoma cells; details: 16h, batch 3, vs DMSO=1
Method: as §1, §2

[5] = test system: WNT-TCF targets; assay: RT-qPCR gene expression in MeWo melanoma cells; details: 16h, batch 3, vs DMSO=1
Method: as §1, §2

[6] = test system: WNT-TCF targets; assay: RT-qPCR gene expression in H358 lung cancer cells; details: 16h, batch 3, vs DMSO=1
Method: as §1, §2

[7] = test system: BMP/TGFβ; assay: RT-qPCR gene expression in Ls174T cells, BMP/TGFβ genes; details: vs DMSO=1
Method: as §1
Nine components of the three pathways (WNT-TCF, BMP/TGFβ and chemokine/cytokine), and the top 6 repressed epigenetic regulators (ZMYND8, EED, SMARCAL1, TBLIXR1, SETD6 and TAF5L) (Figure 12) were tested for their modulation by dnTCF and their timed response to CAP2 treatment. […] DnTCF also repressed the expression of BMP4, SMAD6, IL8, CXCL3 and CXCL5, but expression of IL33 was enhanced. […] BMP4 and ID2 were also repressed at 2 and 4h but SMAD6 was repressed only at 4h. CXCL3 was already repressed at 2h, IL8 was little affected and IL33 and CXCL5 were enhanced at 2h. At 4 h only CXCL3 was repressed and the other three cytokine/chemokine genes tested (IL8, IL33 and CXCL5) were neither enhanced nor repressed. […] All values are normalized ratios with DMSO-controls, which were equated to 1 Table 14

[8] = 1.25µM, 16h, batch 3, vs DMSO=1
[9] = 5µM batch 3, 2h post-treatment, vs DMSO=1
[10] = 5µM batch 3, 4h post-treatment, vs DMSO=1
[11] = Table 11, head 'in vitro', concentration not given

SMILES: CC1=C(C)C(=O)O[C@@H]([C@](C)(O)[C@]2(O)CC[C@@]3(O)[C@@H]4CC=C5CC=CC(=O)[C@]5(C)[C@H]4CC[C@]23C)C1 [CAP2]
- AXIN2 expression [1, 8]: 0.6
- LGR5 expression [1, 8]: 0.2
- AXIN2 expression ([1]; 2.5µM, 16h, batch 3, vs DMSO=1): 0.4
- LGR5 expression ([1]; 2.5µM, 16h, batch 3, vs DMSO=1): 0.1
- AXIN2 expression [1, 9]: 0.2
- LGR5 expression [1, 9]: 0.7
- AXIN2 expression [1, 10]: 0.1
- LGR5 expression [1, 10]: 0.1
- AXIN2 expression ([1]; 5µM, 16h, batch 3, vs DMSO=1): 0.2
- LGR5 expression ([1]; 5µM, 16h, batch 3, vs DMSO=1): 0.03
- AXIN2 expression ([1]; 10 µM, 16h): 0.6
- CDKN1A expression ([1]; 10 µM, 16h): 3.7
- LGR5 expression ([1]; 10 µM, 16h): 0.7
- cMYC expression ([1]; 10 µM, 16h): 0.6
- AXIN2 expression ([1]; 10µM, 16h, batch 3, vs DMSO=1): 0.1
- LGR5 expression ([1]; 10µM, 16h, batch 3, vs DMSO=1): 0.1
- AXIN2 expression level as compared to control ([1]; 2D culture, 2.5µm): 0.4
- ASCL2 expression ([1]; Table 7, 1.25µM, vs DMSO=1): 1.1
- AXIN2 expression ([1]; Table 7, 1.25µM, vs DMSO=1): 0.7
- CDKN1A expression ([1]; Table 7, 1.25µM, vs DMSO=1): 3.5
- LEF1 expression ([1]; Table 7, 1.25µM, vs DMSO=1): 1.2
- LGR5 expression ([1]; Table 7, 1.25µM, vs DMSO=1): 0.3
- cMYC expression ([1]; Table 7, 1.25µM, vs DMSO=1): 0.04
- ASCL2 expression ([1]; Table 7, 2.5µM, vs DMSO=1): 0.4
- AXIN2 expression ([1]; Table 7, 2.5µM, vs DMSO=1): 0.4
- CDKN1A expression ([1]; Table 7, 2.5µM, vs DMSO=1): 5.4
- LEF1 expression ([1]; Table 7, 2.5µM, vs DMSO=1): 0.7
- LGR5 expression ([1]; Table 7, 2.5µM, vs DMSO=1): 0.2
- cMYC expression ([1]; Table 7, 2.5µM, vs DMSO=1): 0.1
- ASCL2 expression ([1]; Table 7, 5µM, vs DMSO=1): 0.1
- AXIN2 expression ([1]; Table 7, 5µM, vs DMSO=1): 0.3
- CDKN1A expression ([1]; Table 7, 5µM, vs DMSO=1): 11.4
- LEF1 expression ([1]; Table 7, 5µM, vs DMSO=1): 0.5
- LGR5 expression ([1]; Table 7, 5µM, vs DMSO=1): 0.1
- cMYC expression ([1]; Table 7, 5µM, vs DMSO=1): 0.1
- ASCL2 expression ([1]; Table 7, 10µM, vs DMSO=1): 0.1
- AXIN2 expression ([1]; Table 7, 10µM, vs DMSO=1): 0.1
- CDKN1A expression ([1]; Table 7, 10µM, vs DMSO=1): 7.6
- LEF1 expression ([1]; Table 7, 10µM, vs DMSO=1): 0.3
- LGR5 expression ([1]; Table 7, 10µM, vs DMSO=1): 0.1
- cMYC expression ([1]; Table 7, 10µM, vs DMSO=1): 0.01
- ASCL2 expression [1, 11]: 0.1
- AXIN2 expression [1, 11]: 0.3
- LGR5 expression [1, 11]: 0.1
- AXIN2 expression ([2]; 1.25µM): 0.8
- LGR5 expression ([2]; 1.25µM): 0.8
- AXIN2 expression ([2]; 2.5µM): 0.9
- LGR5 expression ([2]; 2.5µM): 0.7
- AXIN2 expression ([2]; 5µM): 0.8
- LGR5 expression ([2]; 5µM): 0.3
- AXIN2 expression ([2]; 10µM): 0.4
- LGR5 expression ([2]; 10µM): 0.1
- AXIN2 expression ([3]; 1.25µM): 1.2
- AXIN2 expression ([3]; 2.5µM): 0.6
- AXIN2 expression ([3]; 5µM): 0.4
- AXIN2 expression ([3]; 10µM): 0.4
- AXIN2 expression ([4]; 1.25µM): 0.9
- LGR5 expression ([4]; 1.25µM): 0.5
- AXIN2 expression ([4]; 2.5µM): 0.8
- LGR5 expression ([4]; 2.5µM): 0.3
- AXIN2 expression ([4]; 5µM): 0.7
- LGR5 expression ([4]; 5µM): 0.2
- AXIN2 expression ([4]; 10µM): 0.5
- LGR5 expression ([4]; 10µM): 0.2
- AXIN2 expression ([5]; 1.25µM): 0.4
- LEF1 expression ([5]; 1.25µM): 0.1
- AXIN2 expression ([5]; 2.5µM): 0.6
- LEF1 expression ([5]; 2.5µM): 0.2
- AXIN2 expression ([5]; 5µM): 0.3
- LEF1 expression ([5]; 5µM): 0.1
- AXIN2 expression ([5]; 10µM): 0.6
- LEF1 expression ([5]; 10µM): 0.1
- AXIN2 expression ([6]; 1.25µM): 0.8
- LEF1 expression ([6]; 1.25µM): 0.4
- AXIN2 expression ([6]; 2.5µM): 0.7
- LEF1 expression ([6]; 2.5µM): 0.6
- AXIN2 expression ([6]; 5µM): 0.6
- LEF1 expression ([6]; 5µM): 0.4
- AXIN2 expression ([6]; 10µM): 0.4
- LEF1 expression ([6]; 10µM): 0.2
- BMP4 expression ([7]; 5µM batch 3, 2h post-treatment): 0.4
- ID2 expression ([7]; 5µM batch 3, 2h post-treatment): 0.7
- SMAD6 expression ([7]; 5µM batch 3, 2h post-treatment): 1.3
- BMP4 expression ([7]; 5µM batch 3, 4h post-treatment): 0.1
- ID2 expression ([7]; 5µM batch 3, 4h post-treatment): 0.1
- SMAD6 expression ([7]; 5µM batch 3, 4h post-treatment): 0.4
